Where two headings read alike, the source gives them in different places.
Columns and labels:
[1] = target: T1, TYK2 kinase domain (JH1) (Homo sapiens, UniProt P29597); assay: HTRF-based selectivity assay, TYK2 catalytic domain; format: biochemical; settings: recombinant catalytic domain, ATP 20 μM
T1 construct: recombinant purified His or GST-tagged catalytic domain for each enzyme; made in house
T1 sequence (P29597 897-1176 limits assumed): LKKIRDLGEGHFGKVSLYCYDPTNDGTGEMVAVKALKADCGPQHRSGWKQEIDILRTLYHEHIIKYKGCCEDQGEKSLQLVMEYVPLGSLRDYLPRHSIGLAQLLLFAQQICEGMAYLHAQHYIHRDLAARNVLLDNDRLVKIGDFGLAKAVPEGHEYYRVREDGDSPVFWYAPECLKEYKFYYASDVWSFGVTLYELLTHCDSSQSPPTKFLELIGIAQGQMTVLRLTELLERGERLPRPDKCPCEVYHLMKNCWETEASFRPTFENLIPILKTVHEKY
Description: (§1) Example B-2: HTRF-Based Selectivity Assay
(§2) The ability of compounds to inhibit the activity of JAK1, JAK2, JAK3 and TYK2 is measured using a recombinant purified His or GST-tagged catalytic domain for each enzyme (JAK1, JAK2 and TYK2 are generated in-house; JAK3 was purchased from Carna biosciences, Cat #08-046) in an HTRF format biochemical assay. The reactions employs a commercial peptide substrate from Cisbio (Cat #62TK0PEC). The basic assay protocol is as follows: first, 2.5 μL of diluted compounds (4×) in DMSO are dispensed into a 384-well Optiplate. Next, 2.5 μL of enzyme (final concentrations for enzymes are: TYK2—700 ng/mL, JAK1—80.6 ng/mL, JAK2—2.1 ng/mL and JAK3—171.8 ng/mL) is added and incubated at RT for 5-20 min. Finally, 5 μl of mixture of 2× ATP [Final concentration 20 μM for TYK2, 21.43 μM for JAK1, 14.7 μM for JAK2 and 2.12 μM for JAK3]+2× Substrate [Final concentration 217 nM for TYK2, 454.7 nM for JAK1, 200 nM for JAK2 and 257.4 nM for JAK3] is added to 384 well Optiplate. Composition of Kinase assay buffer used in the assay is as follows: HEPES 50 mM, EGTA 1 mM, MgCl2 10 mM, DTT 2 mM, Tween-20 0.01% and water. Then the plates are shaken and then incubated at 26.5° C. for 60 min.

[2] = target: T2, JAK1 kinase domain (JH1) (Homo sapiens, UniProt P23458); assay: HTRF-based selectivity assay, JAK1 catalytic domain; format: biochemical; settings: recombinant catalytic domain, ATP 21.43 μM
T2 construct: recombinant purified His or GST-tagged catalytic domain for each enzyme; made in house
T2 sequence (P23458 875-1153 limits assumed): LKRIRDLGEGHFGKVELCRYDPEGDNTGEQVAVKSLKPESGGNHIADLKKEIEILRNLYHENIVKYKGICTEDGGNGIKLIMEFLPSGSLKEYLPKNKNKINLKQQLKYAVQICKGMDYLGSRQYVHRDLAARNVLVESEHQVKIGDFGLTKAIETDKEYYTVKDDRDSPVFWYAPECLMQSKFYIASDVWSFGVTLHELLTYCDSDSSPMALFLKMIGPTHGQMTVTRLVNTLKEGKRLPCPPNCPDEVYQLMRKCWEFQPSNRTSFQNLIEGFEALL
Description: as §1, §2

[3] = tested on: HEK-Blue IFNγ reporter cells (IFNγ-stimulated STAT1 SEAP reporter); assay: HEK-Blue IFNγ SEAP reporter assay for determining selectivity; format: cell-based; settings: 50 ng/mL human recombinant IFNγ, read-out: IFN-γ (SEAP selectivity, IC50)
Description: (§3) Example B-3: HEK-Blue™ IL-2 and IFNγ Reporter Assays for Determining Selectivity
(§4) HEK-Blue™ IL-2 and IFNγ reporter cells with a stably-integrated cytokine receptor and STAT5 or STAT1 express STAT-inducible secreted embryonic alkaline phosphatase (SEAP) reporter gene upon cytokine stimulation. These cells were plated in DMEM (Gibco) containing 10% heat-inactivated FBS (Gibco) and 100 U/mL PenStrep (Gibco) at 37° C. under 5% CO2 conditions for 20-22 hours. The cells were then pretreated with serially diluted test compounds for 60 min prior to stimulation with either 4 ng/mL human recombinant IL-2 (Miltenyl Biotech) or 50 ng/mL human recombinant IFNγ (InvivoGen) for 24 hours. SEAP induction was measured using the QUANTI-Blue™ Solution (InvivoGen) according to the manufacturer's instructions.

[4] = tested on: HEK-Blue IFNα/β cells (IFNα-stimulated STAT1 SEAP reporter; TYK2 JH2); assay: HEK-Blue IFNα/β SEAP reporter assay for profiling TYK2 pseudokinase (JH2) inhibition; format: cell-based; settings: 1 ng/mL human recombinant IFNα, read-out: IFNα (TYK2 inhibitory activity, IC50)
In short: (§5)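 Cells plated 20-22 h at 37 °C, 5% CO2 in DMEM with 10% heat-inactivated FBS, then pretreated with serially diluted compound for 60 min. Stimulation: 10 ng/mL human recombinant IL-23 for 22-24 h, or 1 ng/mL human recombinant IFNα for 16-18 h. SEAP induction read with QUANTI-Blue.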

[5] = target: T3, JAK3 kinase domain (JH1) (Homo sapiens, UniProt P52333); assay: HTRF-based selectivity assay, JAK3 catalytic domain; format: biochemical; settings: recombinant catalytic domain, ATP 2.12 μM
T3 construct: recombinant purified His or GST-tagged catalytic domain for each enzyme; purchased Carna biosciences 08-046
T3 sequence (P52333 822-1111 limits assumed): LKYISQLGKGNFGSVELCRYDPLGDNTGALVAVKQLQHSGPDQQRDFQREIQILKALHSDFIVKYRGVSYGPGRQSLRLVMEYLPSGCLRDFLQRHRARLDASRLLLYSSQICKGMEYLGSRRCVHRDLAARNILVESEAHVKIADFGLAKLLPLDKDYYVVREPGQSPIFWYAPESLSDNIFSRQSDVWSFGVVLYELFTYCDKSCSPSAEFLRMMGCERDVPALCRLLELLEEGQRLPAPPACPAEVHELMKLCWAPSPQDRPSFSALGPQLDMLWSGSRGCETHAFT
Description: as §1, §2

[6] = tested on: HEK-Blue IL-2 reporter cells (IL-2-stimulated STAT5 SEAP reporter); assay: HEK-Blue IL-2 SEAP reporter assay for determining selectivity; format: cell-based; settings: 4 ng/mL human recombinant IL-2
Description: as §3, §4

[7] = tested on: HEK-Blue IL-23 cells (IL-23-stimulated STAT3 SEAP reporter; TYK2 JH2); assay: HEK-Blue IL-23 SEAP reporter assay for profiling TYK2 pseudokinase (JH2) inhibition; format: cell-based; settings: 10 ng/mL human recombinant IL-23, SEAP reporter, read-out: IL23 (TYK2 inhibitory activity, IC50)
In short: as §5

IC50 [1] | IC50 [2] | IC50 [5] | Structure (SMILES) | IC50 ([3]; Homo sapiens, HEK-Blue) | IC50 ([4]; Homo sapiens, HEK-Blue) | IC50 [6] | IC50 [7] | IC50 [3] | IC50 [4]
> 1 µM | > 1 µM | > 1 µM | [2H]C([2H])([2H])NC(=O)c1cnc(NC(=O)C2CC2)cc1Nc1cccc2c1N(C)Cc1nc(C)nn1-2 [Compound 4, 6-(cyclopropanecarboxamido)-4-((2,5-dimethyl-4,5-dihydro-[1,2,4]triazolo[1,5-a]quinoxalin-6-yl)amino)-N-(methyl-d3)nicotinamide] | 0.3 to 1 µM | < 0.03 µM | > 1 µM | < 0.03 µM | – | –
– | – | – | [2H]C([2H])([2H])NC(=O)c1cnc(NC(=O)[C@@H]2CC2(F)F)cc1Nc1cccc2c1N(C)Cc1nn(C)nc1-2 [Compound 70, (S)-6-(2,2-difluorocyclopropane-1-carboxamido)-4-((2,5-dimethyl-4,5-dihydro-2H-[1,2,3]triazolo[4,5-c]quinolin-6-yl)amino)-N-(methyl-d3)nicotinamide] | > 1 µM | 0.03 to 0.3 µM | > 1 µM | < 0.03 µM | – | –
– | – | – | [2H]C([2H])([2H])NC(=O)c1nnc(NC(=O)[C@H]2CC2(F)F)cc1Nc1nccc2c1N(C)Cc1nn(C)nc1-2 [Compound 71, (R)-6-(2,2-difluorocyclopropane-1-carboxamido)-4-((2,5-dimethyl-4,5-dihydro-2H-[1,2,3]triazolo[4,5-c][1,7]naphthyridin-6-yl)amino)-N-(methyl-d3)pyridazine-3-carboxamide] | – | – | > 1 µM | < 0.03 µM | 0.03 to 0.3 µM | < 0.03 µM
– | – | – | [2H]C([2H])([2H])NC(=O)c1nnc(NC(=O)C2CC2)cc1Nc1cc(F)cc2c1N(C)Cc1nc(C)nn1-2 [Compound 90, 6-(cyclopropanecarboxamido)-4-((8-fluoro-2,5-dimethyl-4,5-dihydro-[1,2,4]triazolo[1,5-a]quinoxalin-6-yl)amino)-N-(methyl-d3)pyridazine-3-carboxamide] | 0.03 to 0.3 µM | 0.03 to 0.3 µM | > 1 µM | < 0.03 µM | – | –
– | – | – | [2H]C([2H])([2H])NC(=O)c1nnc(NC(=O)C2CC2)cc1Nc1nccc2c1N(C)Cc1nn(C([2H])([2H])[2H])nc1-2 [Compound 91, 6-(cyclopropanecarboxamido)-N-(methyl-d3)-4-((5-methyl-2-(methyl-d3)-4,5-dihydro-2H-[1,2,3]triazolo[4,5-c][1,7]naphthyridin-6-yl)amino)pyridazine-3-carboxamide] | 0.03 to 0.3 µM | < 0.03 µM | > 1 µM | < 0.03 µM | – | –
– | – | – | [2H]C([2H])([2H])NC(=O)c1cnc(NC(=O)C2CC2)cc1Nc1nccc2c1N(C)Cc1nn(C([2H])([2H])[2H])nc1-2 [Compound 92, 6-(cyclopropanecarboxamido)-N-(methyl-d3)-4-((5-methyl-2-(methyl-d3)-4,5-dihydro-2H-[1,2,3]triazolo[4,5-c][1,7]naphthyridin-6-yl)amino)nicotinamide] | 0.03 to 0.3 µM | < 0.03 µM | 0.3 to 1 µM | < 0.03 µM | – | –
– | – | – | [2H]C([2H])([2H])NC(=O)c1nnc(NC(=O)C2CC2)cc1Nc1nccc2c1N(C)Cc1nn(CC)nc1-2 [Compound 93, 6-(cyclopropanecarboxamido)-4-((2-ethyl-5-methyl-4,5-dihydro-2H-[1,2,3]triazolo[4,5-c][1,7]naphthyridin-6-yl)amino)-N-(methyl-d3)pyridazine-3-carboxamide] | 0.3 to 1 µM | < 0.03 µM | 0.3 to 1 µM | < 0.03 µM | – | –
– | – | – | [2H]C([2H])([2H])NC(=O)c1nnc(NC(=O)C2CC2)cc1Nc1nccc2c1N(C)C([2H])([2H])c1nn(C)nc1-2 [Compound 96, 6-(cyclopropanecarboxamido)-4-((2,5-dimethyl-4,5-dihydro-2H-[1,2,3]triazolo[4,5-c][1,7]naphthyridin-6-yl-4,4-d2)amino)-N-(methyl-d3)pyridazine-3-carboxamide] | 0.03 to 0.3 µM | < 0.03 µM | 0.3 to 1 µM | < 0.03 µM | – | –
– | – | – | [2H]C([2H])([2H])NC(=O)c1cnc(NC(=O)C2CC2)cc1Nc1nccc2c1N(C)C([2H])([2H])c1nn(C)nc1-2 [Compound 97, 6-(cyclopropanecarboxamido)-4-((2,5-dimethyl-4,5-dihydro-2H-[1,2,3]triazolo[4,5-c][1,7]naphthyridin-6-yl-4,4-d2)amino)-N-(methyl-d3)nicotinamide] | 0.3 to 1 µM | < 0.03 µM | > 1 µM | < 0.03 µM | – | –
– | – | – | [2H]C([2H])([2H])NC(=O)c1cnc(NC(=O)NC)cc1Nc1cc(F)cc2c1N(C)Cc1nc(C)nn1-2 [Compound 101, 4-((8-fluoro-2,5-dimethyl-4,5-dihydro-[1,2,4]triazolo[1,5-a]quinoxalin-6-yl)amino)-N-(methyl-d3)-6-(3-methylureido)nicotinamide] | > 1 µM | 0.3 to 1 µM | > 1 µM | 0.03 to 0.3 µM | – | –
– | – | – | [2H]C([2H])([2H])NC(=O)c1cnc(Nc2cc(C)nc(C)n2)cc1Nc1cc(F)cc2c1N(C)Cc1nc(C)nn1-2 [Compound 102, 6-((2,6-dimethylpyrimidin-4-yl)amino)-4-((8-fluoro-2,5-dimethyl-4,5-dihydro-[1,2,4]triazolo[1,5-a]quinoxalin-6-yl)amino)-N-(methyl-d3)nicotinamide] | 0.03 to 0.3 µM | < 0.03 µM | 0.3 to 1 µM | < 0.03 µM | – | –
– | – | – | [2H]C([2H])([2H])NC(=O)c1nnc(NC(=O)C2CC2)cc1Nc1ccc(F)c2c1N(C)Cc1nc(C)nn1-2 [Compound 105, 6-(cyclopropanecarboxamido)-4-((9-fluoro-2,5-dimethyl-4,5-dihydro-[1,2,4]triazolo[1,5-a]quinoxalin-6-yl)amino)-N-(methyl-d3)pyridazine-3-carboxamide] | > 1 µM | 0.03 to 0.3 µM | > 1 µM | < 0.03 µM | – | –
– | – | – | [2H]C([2H])([2H])NC(=O)c1cnc(NC(=O)C2CC2)cc1Nc1ccc(F)c2c1N(C)Cc1nc(C)nn1-2 [Compound 107, 6-(cyclopropanecarboxamido)-4-((9-fluoro-2,5-dimethyl-4,5-dihydro-[1,2,4]triazolo[1,5-a]quinoxalin-6-yl)amino)-N-(methyl-d3)nicotinamide] | > 1 µM | 0.03 to 0.3 µM | > 1 µM | < 0.03 µM | – | –
– | – | – | [2H]C([2H])([2H])NC(=O)c1nnc(NC(=O)NC)cc1Nc1nccc2c1N(C)Cc1nn(C)nc1-2 [Compound 108, 4-((2,5-dimethyl-4,5-dihydro-2H-[1,2,3]triazolo[4,5-c][1,7]naphthyridin-6-yl)amino)-N-(methyl-d3)-6-(3-methylureido)pyridazine-3-carboxamide] | > 1 µM | < 0.03 µM | 0.03 to 0.3 µM | < 0.03 µM | – | –
